For 2 compounds, IC50 results are on record in ChEMBL document CHEMBL1151778, “Synthesis of macrocyclic trypanosomal cysteine protease inhibitors” (Bioorg Med Chem Lett, 2008).

pIC50: −log10 of the molar value. Some results are limits rather than exact numbers.

One test concerns the target Cruzipain (Trypanosoma cruzi, UniProt P25779). The experiment in a line: Inhibition of Trypanosoma cruzi recombinant cruzain by fluorescence technique.
A further test has as its target Rhodesain (Trypanosoma brucei rhodesiense, UniProt Q95PM0). As to the kind of experiment: Inhibition of Trypanosoma brucei rhodesiense recombinant rhodesain by fluorescence technique.

Chain of Rhodesain (Q95PM0 whole entry): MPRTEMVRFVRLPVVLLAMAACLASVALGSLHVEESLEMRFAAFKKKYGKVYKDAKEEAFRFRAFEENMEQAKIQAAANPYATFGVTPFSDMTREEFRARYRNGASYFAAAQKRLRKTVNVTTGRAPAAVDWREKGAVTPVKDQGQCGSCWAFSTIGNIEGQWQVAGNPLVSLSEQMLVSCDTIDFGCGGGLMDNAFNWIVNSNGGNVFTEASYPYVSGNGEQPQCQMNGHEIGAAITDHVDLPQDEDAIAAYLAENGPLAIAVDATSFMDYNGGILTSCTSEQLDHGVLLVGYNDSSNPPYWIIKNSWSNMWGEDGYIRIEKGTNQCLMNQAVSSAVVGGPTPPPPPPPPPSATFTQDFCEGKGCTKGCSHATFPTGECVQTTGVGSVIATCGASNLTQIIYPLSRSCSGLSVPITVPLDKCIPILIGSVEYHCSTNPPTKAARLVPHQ
Chain of Cruzipain (P25779 whole entry): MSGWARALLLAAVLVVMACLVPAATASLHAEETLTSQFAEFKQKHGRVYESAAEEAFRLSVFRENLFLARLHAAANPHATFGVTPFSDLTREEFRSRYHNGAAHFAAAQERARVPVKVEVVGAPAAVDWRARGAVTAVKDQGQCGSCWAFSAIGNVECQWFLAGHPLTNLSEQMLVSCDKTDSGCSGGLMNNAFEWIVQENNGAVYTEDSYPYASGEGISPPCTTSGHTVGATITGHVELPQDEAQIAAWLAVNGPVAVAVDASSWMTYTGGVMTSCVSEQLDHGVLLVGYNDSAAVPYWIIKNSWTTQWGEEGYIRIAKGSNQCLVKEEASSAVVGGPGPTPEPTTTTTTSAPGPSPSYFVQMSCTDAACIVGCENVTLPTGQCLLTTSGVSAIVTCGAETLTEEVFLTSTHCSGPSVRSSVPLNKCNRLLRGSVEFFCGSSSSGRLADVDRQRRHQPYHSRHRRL

As usually defined, the pIC50 is −log10 of the IC50, conventionally taken in molar units. With `CC(C)C[C@@H]1N[C@@H](C(=O)Nc2ccccc2)CCCC[C@@H](/C=C/S(=O)(=O)c2ccccc2)NC1=O`, the negative logarithm of the IC50 (pIC50) was less than 5.00 at Cruzipain and 5.00 on Rhodesain.
In the case of `CC(C)C[C@@H]1N[C@@H](C(=O)Nc2ccccc2)CCCCC[C@@H](/C=C/S(=O)(=O)c2ccccc2)NC1=O`, the pIC50 was 5.70 on Cruzipain and 5.22 at Rhodesain.
